Measurements taken from patent publication US20240174618A1, “SUBSTITUTED (2-HETEROARYLOXYPHENYL)SULFONATES, SALTS THEREOF AND THEIR USE AS HERBICIDAL AGENTS” (Bayer Aktiengesellschaft, priority 2021, published 2024).

Legend:
Type in all cases: in vivo
[1] = system: Setaria viridis (SETVI); assay: E. Herbicidal post-emergence efficacy, SETVI
Description: Seeds of monocotyledonous and dicotyledonous weeds and crop plants were placed in sandy loam in plastic or organic planting pots, covered with soil and cultivated in a greenhouse under controlled growth conditions. 2 to 3 weeks after sowing, the test plants were treated at the one-leaf stage. The compounds of the invention, formulated in the form of wettable powders (WP) or as emulsion concentrates (EC), were then sprayed onto the green parts of the plants as aqueous suspension or emulsion with addition of 0.5% additive at a water application rate of 600 l/ha (converted). After the test plants had been kept in the greenhouse under optimum growth conditions for about 3 weeks, the activity of the preparations was rated visually in comparison to untreated controls.
For example, • 100% efficacy=plants have died, • 0% action=like untreated control plants.
Tables E1a to E12b below show the effects of selected compounds of the general formula (I) according to table 1 on various harmful plants at an application rate corresponding to 320 g/ha or less, which were obtained by the experimental procedure mentioned above.

[2] = system: Abutilon theophrasti (ABUTH); assay: A. Herbicidal pre-emergence efficacy, ABUTH; conditions: scored visually after about 3 weeks vs untreated controls
How it was run: (§1)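 Pre-emergence soil-surface spray in sandy loam pots, WP/EC in water plus 0.5% additive, 600 L/ha. Visual % damage rating after about 3 weeks in greenhouse vs. untreated; 0% = control-like, 100% = dead plants. Rates up to 1280 g/ha.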

[3] = system: Amaranthus retroflexus (AMARE); assay: E. Herbicidal post-emergence efficacy, AMARE
How it was run: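 Greenhouse post-emergence spray, one-leaf stage (2–3 wk after sowing, sandy loam); WP/EC formulation, aqueous + 0.5% additive, 600 l/ha water; rates 320 g/ha or less. Visual rating ~3 wk later vs untreated; 0% = control-like, 100% = dead.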

[4] = system: Setaria viridis (SETVI); assay: C. Herbicidal pre-emergence efficacy, SETVI; conditions: scored after about 3 weeks
How it was run: (§2)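 Pre-emergence test: formulated compounds sprayed as aqueous suspension or emulsion with 0.5% additive at 600 l/ha onto soil covering sown seeds, at rates corresponding to 320 g/ha or less. After about 3 weeks in greenhouse, efficacy scored visually as percent versus untreated controls (100% = plants dead).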

[5] = system: Alopecurus myosuroides (ALOMY); assay: C. Herbicidal pre-emergence efficacy, ALOMY; conditions: scored after about 3 weeks
Text: Seeds of monocotyledonous and dicotyledonous weed plants and crop plants were placed in plastic or organic planting pots and covered with soil. The compounds of the invention, formulated in the form of wettable powders (WP) or as emulsion concentrates (EC), were then applied to the surface of the covering soil as aqueous suspension or emulsion with addition of 0.5% additive at a water application rate equivalent to 600 l/ha (converted). After the treatment, the pots were placed in a greenhouse and kept under good growth conditions for the test plants. After about 3 weeks, the efficacy of the preparations was scored visually in comparison with untreated controls as percentages. For example, • 100% efficacy=plants have died, • 0% efficacy=like untreated control plants.
Tables C1a to C14b below show the effects of selected compounds of the general formula (I) according to table 1 on various harmful plants at an application rate corresponding to 320 g/ha or less, which were obtained by the experimental procedure mentioned above.

[6] = system: Kochia scoparia (KCHSC); assay: B. Herbicidal post-emergence efficacy, KCHSC; conditions: for Post-emergence efficacy against KCHSC: 1280 g/ha; for Post-emergence efficacy against KCHSC in %: rated visually after about 3 weeks
How it was run: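 Post-emergence foliar spray, at application rates of 1280 g/ha or less, on one-leaf-stage plants 2–3 weeks post-sowing, using aqueous WP or EC suspensions with 0.5% additive at 600 L/ha. Visual percent efficacy relative to untreated plants scored roughly 3 weeks later in the greenhouse.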

[7] = system: Kochia scoparia (KCHSC); assay: C. Herbicidal pre-emergence efficacy, KCHSC
How it was run: as §2

[8] = system: Digitaria sanguinalis (DIGSA); assay: A. Herbicidal pre-emergence efficacy, DIGSA; conditions: scored visually after about 3 weeks vs untreated controls
How it was run: as §1

Structure (SMILES)	Post-emergence efficacy against SETVI in % ([1]; application rate 320 g/ha)	Pre-emergence efficacy against ABUTH ([2]; 1280 g/ha)	Post-emergence efficacy against AMARE in % ([3]; application rate 80 g/ha)	Post-emergence efficacy against AMARE in % ([3]; application rate 320 g/ha)	Pre-emergence efficacy against SETVI ([4]; 320 g/ha)	Pre-emergence efficacy against ALOMY ([5]; 320 g/ha)	Post-emergence efficacy against KCHSC [6]	Pre-emergence efficacy against ABUTH ([2]; 320 g/ha)	Pre-emergence efficacy against KCHSC in % ([7]; application rate 80 g/ha)	Pre-emergence efficacy against KCHSC in % ([7]; application rate 320 g/ha)	Pre-emergence efficacy against DIGSA ([8]; 320 g/ha)	Pre-emergence efficacy against DIGSA ([8]; 1280 g/ha)	Post-emergence efficacy against SETVI in % ([1]; application rate 80 g/ha)	Pre-emergence efficacy against ABUTH ([2]; 80 g/ha)	Pre-emergence efficacy against SETVI ([4]; 80 g/ha)	Pre-emergence efficacy against ALOMY ([5]; 80 g/ha)	Pre-emergence efficacy against DIGSA ([8]; 80 g/ha)	Post-emergence efficacy against KCHSC in % ([6]; 80 g/ha)	Post-emergence efficacy against KCHSC in % ([6]; 320 g/ha)
O=S(=O)(CCl)Oc1ccccc1Oc1ncc(Cl)cn1 [Example I-9]	100%	90%	100%	100%	90%	80%	90%												
COCCS(=O)(=O)Oc1c(F)cccc1Oc1ncc(Cl)cn1 [Example I-52]	80%	100%		100%	100%	100%		100%	100%	100%	90%	100%							
O=S(=O)(CC1CC1)Oc1ccccc1Oc1ncc(Cl)cn1 [Example I-23]	100%	100%	100%	100%	100%	100%	100%	90%			100%	100%	80%	90%	100%	80%	90%	100%	100%
O=S(=O)(CCCCl)Oc1ccccc1Oc1ncc(Cl)cn1 [Example I-2]	100%	100%	100%	100%	100%	100%	100%	100%					100%	100%	100%	90%		100%	100%
N#Cc1cccc(Oc2ncc(Cl)cn2)c1OS(=O)(=O)CCCC(F)(F)F [Example I-81]	100%		100%	100%	100%	90%			100%	100%					100%				
O=S(=O)(CCC(F)(F)F)Oc1ccccc1Oc1ncc(Cl)cn1 [Example I-8]	90%	100%	100%	100%	100%	100%	90%	90%					90%	90%	100%	90%		90%	90%
O=S(=O)(CCCC(F)(F)F)Oc1ccccc1Oc1ncc(Cl)cn1 [Example I-10]	100%	100%	100%	100%	100%	100%	90%	100%					100%	100%	100%	100%		90%	90%
